According to ChEMBL document CHEMBL6109146, “Discovery of New Pyrazolone Carbothioamide Derivatives as Potent Antifungal Agents for the Treatment of Candidiasis and Cryptococcosis” (J Med Chem, 2025):
Values after ≈ are worked out from the molar mass of the structure shown. Active and inactive are the calls of the source. The calls are words filed in the database; no cut-off is given here.

How the values were obtained:
Nakaseomyces glabratus [1] = test: Antifungal activity against Candida glabrata 0161 assessed as inhibition of fungal growth at <0.0078 microg/ml incubated for 72 hrs by microplate reader analysis; type: functional, organism-based; conditions: dose < 0.0078 µg/ml
Cryptococcus neoformans [2] = test: Induction of morphological changes in Cryptococcus neoformans H99 assessed as cell membrane damage by measuring plasmolysis at 4 microg/ml incubated for 8 hrs by transmission electron microscopic analysis; type: functional, organism-based; conditions: dose 4.0 µg/ml
Nakaseomyces glabratus [3] = test: Antifungal activity against Candida glabrata 0161 assessed as inhibition of fungal growth incubated for 48 to 72 hrs by microplate reader analysis; type: functional; conditions: time 48-72 hrs
Cryptococcus neoformans [4] = test: (§1) Antifungal activity against Cryptococcus neoformans H99 infected in cryptococcosis female ICR mouse model assessed as dense arrangement of neuronal cells at 20 mg/kg, ip pre-infected with fungi for 3 hrs followed by compound administration and measured after 5 days by H and E staining based analysis; type: functional, organism-based; conditions: time 5.0 day
[5] = Cmax in male ICR mouse at 20 mg/kg, po measured after 24 hrs by LC-MS/MS analysis; type: ADME, organism-based; conditions: in vivo
Nakaseomyces glabratus [6] = test: Upregulation of CAT1 gene expression in Candida glabrata 0161 incubated for 8 hrs by qRT-PCR analysis; type: functional
Nakaseomyces glabratus [7] = test: Antifungal activity against Candida glabrata 0161 infected in candidiasis female ICR mouse model assessed as reduction in fungal burden in kidney at 20 mg/kg, ip pre-infected with fungi for 3 hrs followed by compound administration and measured after 5 days; type: functional; conditions: time 5 day
Nakaseomyces glabratus [8] = test: as §1, with “Candida glabrata 0161” for “Cryptococcus neoformans H99”, “candidiasis” for “cryptococcosis”, “tight” for “dense”, “renal tubular epithelial” for “neuronal”; type: functional, organism-based; conditions: time 5.0 day
Cryptococcus neoformans [9] = test: Antifungal activity against Cryptococcus neoformans H99 assessed as inhibition of fungal growth at 0.5 to 4 microg/ml incubated for 48 hrs by spot-plating assay; type: functional, organism-based; conditions: dose 0.5-4 µg/ml
[10] = Cytotoxicity against HUVEC cells assessed as inhibition of cell proliferation incubated for 48 hrs by WST-8 reagent based assay; type: toxicity; conditions: human
Nakaseomyces glabratus [11] = test: Antifungal activity against Candida glabrata 0161 assessed as inhibition of fungal growth in presence of Fe(II) ion; type: functional, organism-based
Cryptococcus neoformans [12] = test: Upregulation of TRX1 gene expression in Cryptococcus neoformans H99 at 4 microg/ml incubated for 8 hrs by qRT-PCR analysis; type: functional; conditions: dose 4.0 µg/ml
Cryptococcus neoformans [13] = test: (§2) Antifungal activity against Cryptococcus neoformans H99 infected in cryptococcosis female ICR mouse model assessed as reduction in cytoplasmic loosening at 20 mg/kg, ip pre-infected with fungi for 3 hrs followed by compound administration and measured after 5 days by H and E staining based analysis; type: functional, organism-based; conditions: time 5.0 day
Nakaseomyces glabratus [14] = test: Induction of ROS accumulation in Candida glabrata 0161 assessed as increase in intracellular ROS level by measuring intense green fluorescence incubated for 24 hrs by DCFH-DA probe based fluorescence microscopic analysis; type: functional, organism-based
[15] = Half-life in male ICR mouse at 20 mg/kg, po measured after 24 hrs by LC-MS/MS analysis; type: ADME, organism-based; conditions: in vivo
Cryptococcus neoformans [16] = test: Induction of morphological changes in Cryptococcus neoformans H99 assessed as cell wall damage at 4 microg/ml incubated for 8 hrs by transmission electron microscopic analysis; type: functional, organism-based; conditions: dose 4.0 µg/ml
[17] = Cytotoxicity against human L02 cells assessed as inhibition of cell proliferation incubated for 48 hrs by WST-8 reagent based assay; type: toxicity
Cryptococcus neoformans [18] = test: Antifungal activity against Cryptococcus neoformans H99 assessed as inhibition of fungal growth in presence of 1 to 10 microg/ml Fe(II) ion; type: functional, organism-based
Cryptococcus neoformans [19] = test: Inhibition of urease production in Cryptococcus neoformans H99 at 0.125 microg/ml by photographic analysis relative to control; type: functional
Cryptococcus neoformans [20] = test: Antifungal activity against Cryptococcus neoformans H99 assessed as inhibition of fungal growth at <0.0078 microg/ml incubated for 72 hrs by microplate reader analysis; type: functional, organism-based; conditions: dose < 0.0078 µg/ml
Nakaseomyces glabratus [21] = test: Antifungal activity against Candida glabrata 0161 assessed as inhibition of fungal cell colony formation at 0.5 microg/ml incubated for 48 hrs by spot-plating assay; type: functional, organism-based; conditions: dose 0.5 µg/ml
Nakaseomyces glabratus [22] = test: Antifungal activity against Candida glabrata 0161 assessed as inhibition of fungal growth at 0.5 to 32 microg/ml incubated for 48 hrs by spot-plating assay; type: functional, organism-based; conditions: dose 0.5-32 µg/ml
Cryptococcus neoformans [23] = test: Induction of morphological changes in Cryptococcus neoformans H99 assessed as vacuole lysis at 4 microg/ml incubated for 8 hrs by transmission electron microscopic analysis; type: functional, organism-based; conditions: dose 4.0 µg/ml
Nakaseomyces glabratus [24] = test: Inhibition of matured biofilm in Candida glabrata 0161 at 2 to 32 microg/ml incubated for 24 hrs by XTT reagent based assay; type: functional, organism-based; conditions: dose 2-32 µg/ml
[Candida] auris = Antifungal activity against Candida auris 15448 assessed as inhibition of fungal growth incubated for 48 to 72 hrs by microplate reader analysis; type: functional, organism-based; conditions: Candidozyma auris, time 48-72 hrs
Cryptococcus neoformans [25] = test: Antifungal activity against Cryptococcus neoformans H99 assessed as inhibition of fungal growth by measuring fold increase in MIC in presence of Fe(III) ion; type: functional
Cryptococcus neoformans [26] = test: as §2, with “intact cellular structures” for “reduction”, “brain cortex” for “cytoplasmic loosening”; type: functional, organism-based; conditions: time 5.0 day
[27] = AUC (0 to infinity) in male ICR mouse at 2 mg/kg, iv measured after 24 hrs by LC-MS/MS analysis; type: ADME, organism-based; conditions: in vivo
Candida glabrata = test: Binding affinity to Candida glabrata KIX domain assessed as inhibition constant
Cryptococcus neoformans [28] = test: Antifungal activity against Cryptococcus neoformans H99 assessed as inhibition of fungal cell colony formation at 0.5 microg/ml incubated for 48 hrs by spot-plating assay; type: functional, organism-based; conditions: dose 0.5 µg/ml
Nakaseomyces glabratus [29] = test: Fungicidal activity against Candida glabrata 0161 incubated for 48 hrs by time-kill kinetics analysis; type: functional
[30] = AUC (0 to t) in male ICR mouse at 2 mg/kg, iv measured after 24 hrs by LC-MS/MS analysis; type: ADME, organism-based; conditions: in vivo
Nakaseomyces glabratus [31] = test: Upregulation of TSA1 gene expression in Candida glabrata 0161 incubated for 8 hrs by qRT-PCR analysis; type: functional
Nakaseomyces glabratus [32] = test: Antifungal activity against Candida glabrata 9256 assessed as inhibition of fungal growth incubated for 48 to 72 hrs by microplate reader analysis; type: functional; conditions: time 48-72 hrs
Nakaseomyces glabratus [33] = test: Reduction in intracellular free iron ions level in Candida glabrata 0161 incubated for 24 hrs by absorbance based analysis; type: functional
[34] = Reduction in intracellular free iron ions level in Cryptococcus neoformans H99 at 4 microg/ml incubated for 24 hrs by absorbance based analysis relative to control; type: functional; parameters: scale not given: the % may be the effect or the level left; conditions: dose 4 µg/ml
Nakaseomyces glabratus [35] = test: Upregulation of SOD1 gene expression in Candida glabrata 0161 incubated for 8 hrs by qRT-PCR analysis; type: functional
Nakaseomyces glabratus [36] = test: Antifungal activity against Candida glabrata 0161 assessed as inhibition of fungal growth at 32 microg/ml incubated for 48 hrs by spot-plating assay; type: functional, organism-based; conditions: dose 32.0 µg/ml
Cryptococcus neoformans [37] = test: Upregulation of SOD1 gene expression in Cryptococcus neoformans H99 at 4 microg/ml incubated for 8 hrs by qRT-PCR analysis; type: functional; conditions: dose 4.0 µg/ml
Cryptococcus neoformans [38] = test: Inhibition of capsule formation in Cryptococcus neoformans H99 at 8 microg/ml incubated for 24 hrs by light microscopic analysis; type: functional
Cryptococcus neoformans [39] = test: Antifungal activity against Cryptococcus neoformans H99 assessed as inhibition of fungal growth by measuring fold increase in MIC in presence of 10% serum containing transferrin-bound ferric iron and free iron; type: functional

MIC80 (Nakaseomyces glabratus [3]): 0.38 nM (≈ 0.12 ng/mL) | Cmax [5]: 1720 ng/mL | half-life [15]: 1.46 h | AUC(0-inf) [27]: 2100 ng·h/mL | K (Candida glabrata): 174 µM | AUC(0-t) at 24 h [30]: 2040 ng·h/mL | MIC80 (Nakaseomyces glabratus [32]): 1.2 10^-4 ug/ml
SMILES: Nc1cc(=O)n(C(=S)Nc2ccc(C3CCCCC3)cc2)[nH]1
Activity (Nakaseomyces glabratus [1]): Not active; Decrease In Inhibitory Potency Observed | Activity (Cryptococcus neoformans [2]): Active | Activity (Cryptococcus neoformans [4]): Active | Activity (Nakaseomyces glabratus [6]): Active | Activity (Nakaseomyces glabratus [7]): 1.2 log10CFU/g | Activity (Nakaseomyces glabratus [8]): Active | Activity (Cryptococcus neoformans [9]): Active | IC50 at 48 h [10]: 0.64 µg/mL (≈ 2.02 µM) | Activity (Nakaseomyces glabratus [11]): inactive | Activity (Cryptococcus neoformans [12]): Active | Activity (Cryptococcus neoformans [13]): Active | Activity (Nakaseomyces glabratus [14]): Active | Activity (Cryptococcus neoformans [16]): inactive | IC50 at 48 h [17]: 13.9 µg/mL (≈ 44 µM) | Activity (Cryptococcus neoformans [18]): inactive | inhibition at 0.125 µg/mL (Cryptococcus neoformans [19]): 100% | Activity (Cryptococcus neoformans [20]): Not active; Decrease In Inhibitory Potency Observed | Activity (Nakaseomyces glabratus [21]): Active | Activity (Nakaseomyces glabratus [22]): Active | Activity (Cryptococcus neoformans [23]): Active | inhibition (Nakaseomyces glabratus [24]): Moderate_effect | Activity ([Candida] auris): Active | fold change (FC) (Cryptococcus neoformans [25]): ~1000 | Activity (Cryptococcus neoformans [26]): Active | Activity (Cryptococcus neoformans [28]): Active | MFC (Nakaseomyces glabratus [29]): 2 µg/mL (≈ 6.32 µM) | Activity (Nakaseomyces glabratus [31]): Active | Activity (Nakaseomyces glabratus [33]): Active | Activity [34]: ~80% | Activity (Nakaseomyces glabratus [35]): Active | Activity (Nakaseomyces glabratus [36]): Moderate_effect | Activity (Cryptococcus neoformans [37]): Active | inhibition at 8 µg/mL (Cryptococcus neoformans [38]): 100% | fold change (FC) (Cryptococcus neoformans [39]): ~1000
